Calls of active or inactive are those of the source. No cut-off for these calls is given here.
Tests used:
[1] = system: Human immunodeficiency virus; assay: Antiviral activity against HIV; format: functional, organism-based
[2] = system: Influenza A virus; assay: Antiviral activity against Influenza virus; format: functional, organism-based

| SMILES | Activity [1] | Activity [2] |
| --- | --- | --- |
| C=C(C)[C@H](O)COc1ccc(CC(=O)O)cc1 | inactive | inactive |
| C=C(C)[C@H](O)COc1ccc(CC=NO)cc1 (mixture of isomers) | inactive | inactive |
| C=C(C)[C@H](O)COc1ccc(CCO)cc1 | inactive | inactive |

— ChEMBL document CHEMBL1667728, “Stachylines A-D from the sponge-derived fungus Stachylidium sp” (J Nat Prod, 2011)
